Data from patent publication US6548536B2, “Agent for inducing apoptosis” (Kyowa Hakko Kogyo Co., Ltd., priority 1998, dated 2003).
In brackets after ≈: the same amount, converted by molar mass.

Key:
Type in all cases: cell-based
HeLa/bcl-2 cells [1] = assay: Anti-Fas antibody-dependent apoptosis inducing activity for HeLa/bcl-2 cells; conditions: Drug concentration: 5 μM, added simultaneously with anti-Fas monoclonal antibody (CH11, 10 ng); 6 hours; Anti-Fas antibody = 100
Excerpt: In HeLa/bcl-2 cells into which the bcl-2 gene is introduced, apoptosis is suppressed by the bcl-2 gene. For this reason, they acquire resistance to apoptosis induced by various anticancer agents or anti-Fas antibodies. Test compounds were examined in their eliminating effect on the apoptosis resistance of HeLa/bcl-2 by simultaneously adding an anti-Fas antibody and each test compound to HeLa/bcl-2 cells and detecting enzymatic activity of caspase that was activated in the process of apoptosis induction as described below. HeLa/bcl-2 cells in Medium A were placed in each well of a 96-well microtiter plate in an amount of 3×10^4 cells. The plate was incubated in a carbon dioxide gas incubator at 37° C. for 12 hours, then each test compound appropriately diluted with Medium A (10 μl) and an anti-Fas monoclonal antibody (CH11, 10 ng) were simultaneously added to each well, and the plate was further incubated in a carbon dioxide gas incubator at 37° C. for 6 hours. After the culture supernatant was removed, the cells were lysed, and caspase activity was measured in the same manner as in Test Example 1. The enzymatic activity of caspase, which was not increased by an anti-Fas antibody alone, was increased by the treatment with the anti-Fas antibody together with the test compound.

[2] = tested on: Bacillus Subtilis ATCC107O7; assay: Antibacterial activity, agar dilution method; set-up: key: —: Inactive; conditions: pH 7
Description: (§1) Antibacterial activity was determined by the agar dilution method using a medium prepared by dissolving 3 g of Bacto trypton (Difco), 3 g of meat extract, 1 g of yeast extract, 1 g of glucose, and 16 g of agar in 1 L of water (pH 7). The antibacterial activities of typical compounds are shown in Table 6 as minimum growth inhibitory concentrations (MIC)

[3] = tested on: Enterococcus hirae ATCC10541; assay: Antibacterial activity, agar dilution method; set-up: key: —: Inactive; conditions: pH 7
Description: as §1

[4] = tested on: Staphylococcus aureus ATCC6538P; assay: Antibacterial activity, agar dilution method; set-up: key: —: Inactive; conditions: pH 7
Description: as §1

HeLa/bcl-2 cells [5] = assay: Apoptosis inducing activity (caspase activation, Ac-DEVD-AMC) for HeLa/bcl-2 cells; conditions: Drug concentration: 5 μM; 6 hours; No drug = 100
Description: (§2) Apoptosis inducing activity of the medicaments of the present invention was determined by measuring enzymatic activity of caspase activated in the process of apoptosis induction as described below,. HeLa cells or HeLa cells into which the bcl-2 gene was introduced (HeLa/bcl-2 cells) contained in DME medium containing 10% fetal calf serum (NISSUI PHARMACEUTICAL CO., LTD., referred to as “Medium A” hereinafter in the example) were placed in each well of 96-well microtiter plates in an amount of 3×10^4 cell. The cells on the plates were cultured in a carbon dioxide gas incubator at 37° C. for 12 hours, then a test compound appropriately diluted with Medium A was added to each well in an amount of 10 μl, and the cells were further cultured in a carbon dioxide gas incubator at 37° C. for 6 hours. After the culture supernatant was removed, the cells were lysed, and to the cell lysate was added a fluorescent substrate of caspase, Ac-DEVD-AMC (Peptide Laboratory). Then, the caspase activity was determined by measuring AMC (7-amino-4-methylcoumarin) released as a result of degradation of Ac-DEVD-AMC by caspase remained in the cell lysate through measurement of fluorescence intensity at 460 nm.

HeLa cells = assay: Apoptosis inducing activity (caspase activation, Ac-DEVD-AMC) for HeLa cells; conditions: Drug concentration: 5 μM; 6 hours; No drug = 100
Description: as §2

HeLa/bcl-2 cells [6] = assay: Cytotoxic activity for HeLa/bcl-2 cells (XTT staining); conditions: 24 hours, read-out: Growth Inhibition (IC50), HeLa/bcl-2 cell
Description: HeLa/bcl-2 cells in Medium A were placed in each well of a 96-well microtiter plate in an amount of 3×10^4 cells. The plate was incubated in a carbon dioxide gas incubator at 37° C. for 12 hours, then 10 μl of each test compound appropriately diluted with Medium A was added to each well, and the incubation was further continued in a carbon dioxide gas incubator at 37° C.

MCF-7 cell = assay: Growth inhibition test for hormone-dependent human breast cancer MCF-7 cell strain (MTT); conditions: 72 hours
Description: Cells were placed in each well of a 96-well microplate (Nunc, #167008) in an amount of 4000 cells per well, and the cells were pre-cultured in RPMI 1640 medium containing 5% fetal calf serum (FCS) for 24 hours in a 5% carbon dioxide gas incubator at 37° C. Then, a solution of each test compound in dimethyl sulfoxide (DMSO) prepared at a concentration of 10 mmol/L was serially diluted with the culture medium and added to each well (final volume: 100 μL/well). The cells were then further cultured for 72 hours in a 5% carbon dioxide gas incubator at 37° C. Five hours before completion of the culture, 4,5-dimethylthiazol-2-yl)-2,5-diphenyltetrazolium bromide (Sigma, abbreviated as “MTT” hereinafter) prepared at a concentration of 6 mg/mL with the culture medium was added in an amount of 10 μL per well. After the completion of culture, the medium was sucked, DMSO was added to each well in an amount of 150 μL per well and the mixture was vigorously stirred by using a plate mixer to completely dissolve the crystals of MTT-formazan. Then, difference of absorbance at 550 nm and 630 nm was determined by using a microplate reader (M-Spmax250, Wako Pure Chemicals). Inhibitory activity on the cell growth was calculated as 50% growth inhibitory concentration (IC50) based on a 4-parameter logistic calibration curve by using the formula of the analysis software (SOFTmax-J Ver.2.1) equipped with microplate reader.

Structure (SMILES) | Rate of Caspase Activation, HeLa/bcl-2 cell (HeLa/bcl-2 cells [1]) [%] | MIC, BS [2] | MIC, EH [3] | MIC, SA [4] | Rate of Caspase Activation, HeLa/bcl-2 cell (HeLa/bcl-2 cells [5]) [%] | Rate of Caspase Activation, HeLa cell (HeLa cells) [%] | IC50 (HeLa/bcl-2 cells [6]) [µM] | IC50 (MCF-7 cell) [µM]
COC(=O)NC1C(C)OC(OC2C/C=C(\C)C3C=CC4C(OC5CC(OC6CCC(OC7CC(O)C(OC8CCC(O)C(C)O8)C(C)O7)C(C)O6)C(OC(C)=O)C(C)O5)C(C)CC(C)C4C3(C)C(=O)C3=C(O)C4(CC(C=O)=CC(O)C4/C=C/2C)OC3=O)CC1(C)[N+](=O)[O-] (stereo not shown) [Compound 1] | 964 |  |  |  |  |  |  | 
COC(=O)NC1C(C)OC(OC2C/C=C(\C)C3C=CC4C(O[Si](C)(C)C(C)(C)C)C(C)CC(C)C4C3(C)C(=O)C3=C(O)C4(CC(C=O)=CC(O)C4/C=C/2C)OC3=O)CC1(C)[N+](=O)[O-] (stereo not shown) [Compound 22] | 444 | — | 21 µg/mL (≈ 23.4 µM) | 42 µg/mL (≈ 46.8 µM) | 1078 | 243 | 1.8 | 
COC(=O)NC1C(C)OC(OC2C/C=C(\C)C3C=CC4C(OC5CC(OC6CCC(OC7CC(O)C(O)C(C)O7)C(C)O6)C(OC(C)=O)C(C)O5)C(C)CC(C)C4C3(C)C(=O)C3=C(O)C4(CC(C=NO)=CC(O)C4/C=C/2C)OC3=O)CC1(C)[N+](=O)[O-] (stereo not shown) [Compound 24] |  | 2.9 µg/mL (≈ 2.39 µM) | >92 µg/mL | >92 µg/mL |  |  |  | 
COC(=O)NC1C(C)OC(OC2C/C=C(\C)C3C=CC4C(OC5CC(OC6CCC(O)C(C)O6)C(OC(C)=O)C(C)O5)C(C)CC(C)C4C3(C)C(=O)C3=C(O)C4(CC(C=NO)=CC(O)C4/C=C/2C)OC3=O)CC1(C)[N+](=O)[O-] (stereo not shown) [Compound 25] |  | >83 µg/mL | — | — |  |  |  | 
COC(=O)C=CC1=CC(O)C2/C=C(\C)C(OC3CC(C)([N+](=O)[O-])C(NC(=O)OC)C(C)O3)C/C=C(\C)C3C=CC4C(OC5CC(OC6CCC(OC7CC(O)C(OC8CCC(O)C(C)O8)C(C)O7)C(C)O6)C(OC(C)=O)C(C)O5)C(C)CC(C)C4C3(C)C(=O)C3=C(O)C2(C1)OC3=O (stereo not shown) [Compound 37] |  | 0.42 µg/mL (≈ 0.307 µM) | — | — |  |  |  | 5.11
CCOC(OCC)C1=CC(O)C2/C=C(\C)C(OC3CC(C)([N+](=O)[O-])C(NC(=O)OC)C(C)O3)C/C=C(\C)C3C=CC4C(OC5CC(OC6CCC(OC7CC(O)C(OC8CCC(O)C(C)O8)C(C)O7)C(C)O6)C(OC(C)=O)C(C)O5)C(C)CC(C)C4C3(C)C(=O)C3=C(OC)C2(C1)OC3=O (stereo not shown) [Compound 38] |  | 12.5 µg/mL (≈ 8.92 µM) | — | — |  |  |  | 1.22
COC(=O)NC1C(C)OC(OC2C/C=C(\C)C3C=CC4C(OC5CCCCO5)C(C)CC(C)C4C3(C)C(=O)C3=C(O)C4(CC(C=O)=CC(OC(C)=O)C4/C=C/2C)OC3=O)CC1(C)[N+](=O)[O-] (stereo not shown) [Compound 51] | 460 | 6.25 µg/mL (≈ 6.88 µM) | 1.56 µg/mL (≈ 1.72 µM) | 1.56 µg/mL (≈ 1.72 µM) |  |  |  | 1.36
COC(=O)NC1C(C)OC(OC2CC=C(C)C3C=CC4C(OC5CC(OCc6ccccc6)C(OCc6ccccc6)C(COCc6ccccc6)O5)C(C)CC(C)C4C3(C)C(=O)C3=C(O)C4(CC(C=O)=CC(O)C4C=C2C)OC3=O)CC1(C)[N+](=O)[O-] (stereo not shown) [Compound 55] |  |  |  |  | 448 | 106 |  | 
COC(=O)NC1C(C)OC(OC2CC=C(C)C3C=CC4C(OC5CC(OCc6ccccc6)C(OCc6ccccc6)C(COCc6ccccc6)O5)C(C)CC(C)C4C3(C)C(=O)C3=C(O)C4(CC(C=O)=CC(OC(C)=O)C4C=C2C)OC3=O)CC1(C)[N+](=O)[O-] (stereo not shown) [Compound 56] |  |  |  |  |  |  |  | 0.63
COC(=O)NC1C(C)OC(OC2CC=C(C)C3C=CC4C(OC5CC(OC(C)=O)C(OC(C)=O)C(C)O5)C(C)CC(C)C4C3(C)C(=O)C3=C(O)C4(CC(C=O)=CC(OC(C)=O)C4C=C2C)OC3=O)CC1(C)[N+](=O)[O-] (stereo not shown) [Compound 59] |  | 16.7 µg/mL (≈ 16.1 µM) | >66.7 µg/mL | >66.7 µg/mL |  |  |  | 0.98
COC(=O)NC1C(C)OC(OC2CC=C(C)C3C=CC4C(OC5C=CC(O)C(C)O5)C(C)CC(C)C4C3(C)C(=O)C3=C(O)C4(CC(C=O)=CC(OC(C)=O)C4C=C2C)OC3=O)CC1(C)[N+](=O)[O-] (stereo not shown) [Compound 60] | 526 | >83.3 µg/mL | — | — |  |  |  | 
COC(=O)NC1C(C)OC(OC2CC=C(C)C3C=CC4C(OC5C=CC(OC(C)=O)C(C)O5)C(C)CC(C)C4C3(C)C(=O)C3=C(O)C4(CC(C=O)=CC(OC(C)=O)C4C=C2C)OC3=O)CC1(C)[N+](=O)[O-] (stereo not shown) [Compound 61] | 452 | 10.4 µg/mL (≈ 10.6 µM) | — | — | 370 | 213 |  | 1.45
CC[Si](CC)(CC)OC1C=CC(OC2C(C)CC(C)C3C2C=CC2C(C)=CCC(OC4CC(C)([N+](=O)[O-])C(NC(=O)OC)C(C)O4)C(C)=CC4C(OC(C)=O)C=C(C=O)CC45OC(=O)C(=C5O)C(=O)C23C)OC1C (stereo not shown) [Compound 63] |  | >91.7 µg/mL | — | — |  |  |  | 0.72
COC(=O)NC1C(C)OC(OC2C/C=C(\C)C3C=CC4C(OC5CC(OC6CCC(OC7CC(OC(C)=O)C(O)C(C)O7)C(C)O6)C(OC(C)=O)C(C)O5)C(C)CC(C)C4C3(C)C(=O)C3=C(O)C4(CC(C=O)=CC(OC(C)=O)C4/C=C/2C)OC3=O)CC1(C)[N+](=O)[O-] (stereo not shown) [Compound 65] | 659 | 2.34 µg/mL (≈ 1.82 µM) | — | — |  |  |  | 0.52
COC(=O)NC1C(C)OC(OC2CC=C(C)C3C=CC4C(OC5(C)OC6OC(COC(C)=O)C(OC(C)=O)C(OC(C)=O)C6O5)C(C)CC(C)C4C3(C)C(=O)C3=C(O)C4(CC(C=O)=CC(OC(C)=O)C4C=C2C)OC3=O)CC1(C)[N+](=O)[O-] (stereo not shown) [Compound 66] |  | >60.0 µg/mL | 60.0 µg/mL (≈ 51.9 µM) | 60.0 µg/mL (≈ 51.9 µM) |  |  |  | 1.4
